{"source": "paper PMC5218480", "about": "(PLoS ONE, 2017)", "tested_on": "MV-4-11 cells", "test": "Gene expression microarray analysis (Affymetrix PrimeView) and GSEA", "type": "cell-based, human", "set-up": "RFU PODN (11730768_x_at) / Fold change /veh PODN (11730768_x_at) / RFU LINC00158 (11744669_a_at) / Fold change /veh LINC00158 (11744669_a_at) / RFU DUSP10 (11751237_a_at) / Fold change /veh DUSP10 (11751237_a_at) / RFU ID3 (11757404_x_at) / Fold change /veh ID3 (11757404_x_at) / RFU PLEKHG5 (11737974_s_at) / Fold change /veh PLEKHG5 (11737974_s_at) / RFU LRRC4B (11730491_at) / Fold change /veh LRRC4B (11730491_at) / RFU GIMAP4 (11747438_a_at) / Fold change /veh GIMAP4 (11747438_a_at) / RFU KRT8 (11758183_x_at) / Fold change /veh KRT8 (11758183_x_at) / RFU CNN1 (11734310_a_at) / Fold change /veh CNN1 (11734310_a_at) / RFU VPS37D (11726825_at) / Fold change /veh VPS37D (11726825_at) / RFU C10orf10 (11716522_x_at) / Fold change /veh C10orf10 (11716522_x_at) / RFU KIR2DL2 /// KIR2DL4 /// KIR2DL5A /// KIR2DL5B /// KIR2DS1 /// KIR2DS2 /// KIR2DS3 /// KIR2DS4 /// KIR3DL3 /// KIR3DL3 /// KIR3DS1 (11738374_at) / Fold change /veh KIR2DL2 /// KIR2DL4 /// KIR2DL5A /// KIR2DL5B /// KIR2DS1 /// KIR2DS2 /// KIR2DS3 /// KIR2DS4 /// KIR3DL3 /// KIR3DL3 /// KIR3DS1 (11738374_at) / RFU C1QL1 (11718748_at) / Fold change /veh C1QL1 (11718748_at) / RFU TMPRSS4 (11747572_a_at) / Fold change /veh TMPRSS4 (11747572_a_at) / RFU HAMP (11756126_x_at) / Fold change /veh HAMP (11756126_x_at) / RFU RNFT2 (11725882_a_at) / Fold change /veh RNFT2 (11725882_a_at) / RFU NR4A2 (11747474_a_at) / Fold change /veh NR4A2 (11747474_a_at) / RFU ABCC12 (11746883_a_at) / Fold change /veh ABCC12 (11746883_a_at) / RFU TMEM136 (11760407_x_at) / Fold change /veh TMEM136 (11760407_x_at) / RFU CLDN22 /// WWC2 (11732394_at) / Fold change /veh CLDN22 /// WWC2 (11732394_at) / RFU HLA-DPB1 (11760878_x_at) / Fold change /veh HLA-DPB1 (11760878_x_at) / RFU SPINT1 (11716480_a_at) / Fold change /veh SPINT1 (11716480_a_at) / RFU GAP43 (11754022_s_at) / Fold change /veh GAP43 (11754022_s_at) / RFU A4GNT (11735810_at) / Fold change /veh A4GNT (11735810_at) / RFU PRB3 (11715151_x_at) / Fold change /veh PRB3 (11715151_x_at) / RFU TUBB4B (11761932_at) / Fold change /veh TUBB4B (11761932_at) / RFU CAPN14 (11732068_a_at) / Fold change /veh CAPN14 (11732068_a_at) / RFU TMCC2 (11721928_a_at) / Fold change /veh TMCC2 (11721928_a_at) / RFU IRGQ (11745062_a_at) / Fold change /veh IRGQ (11745062_a_at) / RFU FAM174B (11720279_a_at) / Fold change /veh FAM174B (11720279_a_at) / RFU TMPRSS4 (11748680_a_at) / Fold change /veh TMPRSS4 (11748680_a_at) / RFU FAM212B (11763350_a_at) / Fold change /veh FAM212B (11763350_a_at) / RFU PLEKHG5 (11743358_a_at) / Fold change /veh PLEKHG5 (11743358_a_at) / RFU ZSCAN30 (11745921_a_at) / Fold change /veh ZSCAN30 (11745921_a_at) / RFU CMKLR1 (11741424_a_at) / Fold change /veh CMKLR1 (11741424_a_at) / RFU LOC101060620 /// MAPK8IP1 (11723275_at) / Fold change /veh LOC101060620 /// MAPK8IP1 (11723275_at) / RFU SPTSSB (11747773_x_at) / Fold change /veh SPTSSB (11747773_x_at) / RFU PRSS12 (11739890_at) / Fold change /veh PRSS12 (11739890_at) / RFU BIN1 (11741810_x_at) / Fold change /veh BIN1 (11741810_x_at) / RFU WNT11 (11732464_a_at) / Fold change /veh WNT11 (11732464_a_at) / RFU C10orf10 (11716521_a_at) / Fold change /veh C10orf10 (11716521_a_at) / RFU C5orf56 (11738089_at) / Fold change /veh C5orf56 (11738089_at) / RFU CYB561 (11721691_x_at) / Fold change /veh CYB561 (11721691_x_at) / RFU ANKRD19P (11752326_a_at) / Fold change /veh ANKRD19P (11752326_a_at) / RFU OR2T12 /// OR2T33 /// OR2T8 (11738714_s_at) / Fold change /veh OR2T12 /// OR2T33 /// OR2T8 (11738714_s_at) / RFU VCAN (11748164_a_at) / Fold change /veh VCAN (11748164_a_at) / RFU JSRP1 (11732532_at) / Fold change /veh JSRP1 (11732532_at) / RFU KRTAP10-11 (11738290_x_at) / Fold change /veh KRTAP10-11 (11738290_x_at) / RFU MYO3A (11730013_a_at) / Fold change /veh MYO3A (11730013_a_at) / RFU EBF3 (11725865_a_at) / Fold change /veh EBF3 (11725865_a_at) / RFU CAMK2N1 (11719241_x_at) / Fold change /veh CAMK2N1 (11719241_x_at) / RFU C5orf56 (11738088_a_at) / Fold change /veh C5orf56 (11738088_a_at) / RFU OLFML3 (11715873_a_at) / Fold change /veh OLFML3 (11715873_a_at) / RFU LOC100653217 /// NTM (11731650_a_at) / Fold change /veh LOC100653217 /// NTM (11731650_a_at) / RFU MAPK11 (11762145_a_at) / Fold change /veh MAPK11 (11762145_a_at) / RFU FIZ1 (11724087_x_at) / Fold change /veh FIZ1 (11724087_x_at) / RFU OASL (11726364_x_at) / Fold change /veh OASL (11726364_x_at) / RFU SOX15 (11748057_x_at) / Fold change /veh SOX15 (11748057_x_at) / RFU CD79A (11719716_a_at) / Fold change /veh CD79A (11719716_a_at) / RFU HIST1H1D (11736915_at) / Fold change /veh HIST1H1D (11736915_at) / RFU CASKIN2 (11723855_a_at) / Fold change /veh CASKIN2 (11723855_a_at) / RFU LOC730098 (11760151_x_at) / Fold change /veh LOC730098 (11760151_x_at) / RFU OR4N2 (11742367_at) / Fold change /veh OR4N2 (11742367_at) / RFU PRRT2 (11749266_a_at) / Fold change /veh PRRT2 (11749266_a_at) / RFU SNX32 (11753110_a_at) / Fold change /veh SNX32 (11753110_a_at) / RFU CDHR5 (11726645_a_at) / Fold change /veh CDHR5 (11726645_a_at) / RFU RCAN1 (11760418_a_at) / Fold change /veh RCAN1 (11760418_a_at) / RFU FAM167A (11723789_a_at) / Fold change /veh FAM167A (11723789_a_at) / RFU FAM26E (11764081_at) / Fold change /veh FAM26E (11764081_at) / RFU ISYNA1 (11749810_s_at) / Fold change /veh ISYNA1 (11749810_s_at) / RFU ACY1 (11761880_at) / Fold change /veh ACY1 (11761880_at) / RFU 11764098_at / Fold change /veh 11764098_at / RFU SAMD14 (11745864_x_at) / Fold change /veh SAMD14 (11745864_x_at) / RFU NPB (11741838_a_at) / Fold change /veh NPB (11741838_a_at) / RFU TMPRSS6 (11731388_a_at) / Fold change /veh TMPRSS6 (11731388_a_at) / RFU KRTAP10-2 (11738614_at) / Fold change /veh KRTAP10-2 (11738614_at) / RFU ARHGAP8 /// PRR5-ARHGAP8 (11727945_x_at) / Fold change /veh ARHGAP8 /// PRR5-ARHGAP8 (11727945_x_at) / RFU KRTAP5-7 /// NADSYN1 (11734609_at) / Fold change /veh KRTAP5-7 /// NADSYN1 (11734609_at) / RFU RASL12 (11751679_a_at) / Fold change /veh RASL12 (11751679_a_at) / RFU CDKN2B (11736163_a_at) / Fold change /veh CDKN2B (11736163_a_at) / RFU PRF1 (11729649_at) / Fold change /veh PRF1 (11729649_at) / RFU, ZNF638 /// ZNF638-IT1 / Fold change vs veh, ZNF638 /// ZNF638-IT1 / RFU, PANK3 / Fold change vs veh, PANK3 / RFU, SH3YL1 / Fold change vs veh, SH3YL1 / RFU, ZEB2 / Fold change vs veh, ZEB2 / RFU, NRIP1 / Fold change vs veh, NRIP1 / RFU, PTTG1IP / Fold change vs veh, PTTG1IP / RFU, CAPN2 / Fold change vs veh, CAPN2 / RFU, MED14 / Fold change vs veh, MED14 / RFU, SNORA58 / Fold change vs veh, SNORA58 / RFU, C1orf63 / Fold change vs veh, C1orf63 / RFU, LRRFIP1 / Fold change vs veh, LRRFIP1 / RFU, NDUFAF7 / Fold change vs veh, NDUFAF7 / RFU, SLC12A2 / Fold change vs veh, SLC12A2 / RFU, IBTK / Fold change vs veh, IBTK / RFU, ESF1 / Fold change vs veh, ESF1 / Fold change vs veh, TMEM50B / RFU, TAOK1 / Fold change vs veh, TAOK1 / RFU, ACBD3 / Fold change vs veh, ACBD3 / RFU, TMA16 / Fold change vs veh, TMA16 / RFU, RWDD3 / Fold change vs veh, RWDD3 / RFU, BCAT1 / Fold change vs veh, BCAT1 / RFU, EDEM3 / Fold change vs veh, EDEM3 / RFU, TMEM33 / Fold change vs veh, TMEM33 / RFU, WDR75 / Fold change vs veh, WDR75 / RFU, AHCTF1 / Fold change vs veh, AHCTF1 / RFU, TFRC / Fold change vs veh, TFRC / RFU, ZDHHC17 / Fold change vs veh, ZDHHC17 / RFU, NOM1 / Fold change vs veh, NOM1 / RFU, ARL8B / Fold change vs veh, ARL8B / RFU, ZBTB11 / Fold change vs veh, ZBTB11 / RFU, TAMM41 / Fold change vs veh, TAMM41 / RFU, KIAA1704 /// LOC100996395 / Fold change vs veh, KIAA1704 /// LOC100996395 / RFU, ING1 / Fold change vs veh, ING1 / RFU, TRMT61B / Fold change vs veh, TRMT61B / RFU, FUBP3 / Fold change vs veh, FUBP3 / RFU, TP53 / Fold change vs veh, TP53 / RFU, TNKS2 / Fold change vs veh, TNKS2 / RFU, ZFP14 / Fold change vs veh, ZFP14 / RFU, ACTR2 / Fold change vs veh, ACTR2 / RFU, PPP3R1 / Fold change vs veh, PPP3R1 / RFU, PIK3R1 / Fold change vs veh, PIK3R1 / RFU, HNRNPA1 / Fold change vs veh, HNRNPA1 / RFU, RNF170 / Fold change vs veh, RNF170 / RFU, ZNF28 / Fold change vs veh, ZNF28 / RFU, RNGTT / Fold change vs veh, RNGTT / RFU, OGT / Fold change vs veh, OGT / RFU, BRD1 / Fold change vs veh, BRD1 / RFU, MARS / Fold change vs veh, MARS / RFU, ZNF655 / Fold change vs veh, ZNF655 / RFU, FAHD1 / Fold change vs veh, FAHD1 / RFU, BDP1 / Fold change vs veh, BDP1 / RFU, LRRCC1 / Fold change vs veh, LRRCC1 / RFU, ARID1A / Fold change vs veh, ARID1A / RFU, ZNF146 / Fold change vs veh, ZNF146 / RFU, ZNF330 / Fold change vs veh, ZNF330 / RFU, GPN3 / Fold change vs veh, GPN3 / RFU, C9orf123 / Fold change vs veh, C9orf123 / RFU, N4BP2L2 / Fold change vs veh, N4BP2L2 / RFU, ARFIP1 / Fold change vs veh, ARFIP1 / RFU, FAM179B / Fold change vs veh, FAM179B / RFU, BCL10 / Fold change vs veh, BCL10 / RFU, UHRF1BP1L / Fold change vs veh, UHRF1BP1L / RFU, BET1 / Fold change vs veh, BET1 / RFU, CNOT2 / Fold change vs veh, CNOT2 / RFU, ZNF268 / Fold change vs veh, ZNF268 / Fold change vs veh, ZNF507 / RFU, DGCR2 / Fold change vs veh, DGCR2 / RFU, WDSUB1 / Fold change vs veh, WDSUB1 / Fold change vs veh, HSP90B1 /// MIR3652 / RFU, ADSS / Fold change vs veh, ADSS / RFU, GK / Fold change vs veh, GK / RFU, ZNF148 / Fold change vs veh, ZNF148 / RFU, TAF9 / Fold change vs veh, TAF9 / RFU, SLC1A5 / Fold change vs veh, SLC1A5 / RFU, SLMO2 / Fold change vs veh, SLMO2 / RFU, ABCC4 / Fold change vs veh, ABCC4 / RFU, LOC101060439 /// RAP1B / Fold change vs veh, LOC101060439 /// RAP1B / RFU, RFX7 / Fold change vs veh, RFX7 / RFU, GTPBP10 / Fold change vs veh, GTPBP10 / RFU, CNEP1R1 / Fold change vs veh, CNEP1R1 / RFU, BIVM-ERCC5 /// ERCC5 / Fold change vs veh, BIVM-ERCC5 /// ERCC5 / RFU, ILF3 / Fold change vs veh, ILF3 / RFU 11762660_at / Fold change /veh 11762660_at / RFU VCAN (11757783_s_at) / Fold change /veh VCAN (11757783_s_at) / RFU DDX43 (11728927_at) / Fold change /veh DDX43 (11728927_at) / RFU KRT8 (11758188_x_at) / Fold change /veh KRT8 (11758188_x_at) / RFU NKD1 (11759106_at) / Fold change /veh NKD1 (11759106_at) / RFU SRD5A1 (11742802_a_at) / Fold change /veh SRD5A1 (11742802_a_at) / RFU TPSAB1 /// TPSB2 (11721975_s_at) / Fold change /veh TPSAB1 /// TPSB2 (11721975_s_at) / RFU GSTM3 (11746129_a_at) / Fold change /veh GSTM3 (11746129_a_at) / RFU IL23R (11737362_x_at) / Fold change /veh IL23R (11737362_x_at) / RFU TMEM51 (11727254_a_at) / Fold change /veh TMEM51 (11727254_a_at) / RFU PIWIL2 (11732686_x_at) / Fold change /veh PIWIL2 (11732686_x_at) / RFU ORM1 (11744905_x_at) / Fold change /veh ORM1 (11744905_x_at) / RFU CCDC152 (11743942_at) / Fold change /veh CCDC152 (11743942_at) / RFU ECM1 (11717891_a_at) / Fold change /veh ECM1 (11717891_a_at) / RFU IL23R (11748794_a_at) / Fold change /veh IL23R (11748794_a_at) / RFU TNFAIP8L3 (11732012_x_at) / Fold change /veh TNFAIP8L3 (11732012_x_at) / RFU MBOAT4 (11741988_at) / Fold change /veh MBOAT4 (11741988_at) / RFU 11764193_at / Fold change /veh 11764193_at / RFU TMEM53 (11763286_at) / Fold change /veh TMEM53 (11763286_at) / RFU MAGEB2 (11727129_at) / Fold change /veh MAGEB2 (11727129_at) / RFU TMEM200A (11744735_a_at) / Fold change /veh TMEM200A (11744735_a_at) / RFU CCDC152 (11751479_a_at) / Fold change /veh CCDC152 (11751479_a_at) / RFU FAM211A (11726209_a_at) / Fold change /veh FAM211A (11726209_a_at) / RFU RGS16 (11746705_a_at) / Fold change /veh RGS16 (11746705_a_at) / RFU VCAN (11755009_s_at) / Fold change /veh VCAN (11755009_s_at) / RFU RHOB (11743442_s_at) / Fold change /veh RHOB (11743442_s_at) / RFU RGS16 (11720943_a_at) / Fold change /veh RGS16 (11720943_a_at) / RFU RGS16 (11720944_at) / Fold change /veh RGS16 (11720944_at) / RFU, VPS4B / Fold change vs veh, VPS4B / RFU, CREB1 / Fold change vs veh, CREB1 / RFU, DNAJC13 / Fold change vs veh, DNAJC13 / RFU, GNAQ / Fold change vs veh, GNAQ / RFU, CDK5R1 / Fold change vs veh, CDK5R1 / RFU, ZRANB3 / Fold change vs veh, ZRANB3 / RFU, CUL4A / Fold change vs veh, CUL4A / RFU, CCNY / Fold change vs veh, CCNY / RFU, UFL1 / Fold change vs veh, UFL1 / RFU, COG3 / Fold change vs veh, COG3 / RFU, DIAPH2 / Fold change vs veh, DIAPH2 / RFU, SKA2 / Fold change vs veh, SKA2 / RFU, AFF3 / Fold change vs veh, AFF3 / RFU, LMF1 / Fold change vs veh, LMF1 / RFU, IPO11 / Fold change vs veh, IPO11 / RFU, DFFB / Fold change vs veh, DFFB / RFU, FOXP1 / Fold change vs veh, FOXP1 / RFU, CARD8 / Fold change vs veh, CARD8 / RFU, STRN3 / Fold change vs veh, STRN3 / RFU, ADK / Fold change vs veh, ADK / RFU, RASSF2 / Fold change vs veh, RASSF2 / RFU, WIPF1 / Fold change vs veh, WIPF1 / RFU, LARP1B / Fold change vs veh, LARP1B / RFU, RASA1 / Fold change vs veh, RASA1 / RFU, RB1 / Fold change vs veh, RB1 / RFU, PPFIA1 / Fold change vs veh, PPFIA1 / RFU, MAT2A / Fold change vs veh, MAT2A / RFU, CCT5 / Fold change vs veh, CCT5 / RFU, WDR92 / Fold change vs veh, WDR92 / RFU, CUX1 / Fold change vs veh, CUX1 / RFU, TTC7A / Fold change vs veh, TTC7A / RFU, TMEM135 / Fold change vs veh, TMEM135 / RFU, DEPTOR / Fold change vs veh, DEPTOR / RFU, CPM / Fold change vs veh, CPM / RFU, DNAJB6 / Fold change vs veh, DNAJB6 / RFU, CACNA2D3 / Fold change vs veh, CACNA2D3 / RFU, DTX4 / Fold change vs veh, DTX4 / RFU, TFCP2 / Fold change vs veh, TFCP2 / RFU, GMCL1 /// GMCL1P1 / Fold change vs veh, GMCL1 /// GMCL1P1 / RFU, AEBP2 / Fold change vs veh, AEBP2 / RFU, SNHG1 /// SNORD22 /// SNORD25 /// SNORD26 /// SNORD27 /// SNORD28 /// SNORD29 /// SNORD31 / Fold change vs veh, SNHG1 /// SNORD22 /// SNORD25 /// SNORD26 /// SNORD27 /// SNORD28 /// SNORD29 /// SNORD31 / Fold change (Aza/veh), C12orf56 (ProbeSet 11735607_a_at) / Fold change (ACY-1035/veh), C12orf56 (ProbeSet 11735607_a_at) / Fold change (Aza/veh), FGFR1OP (ProbeSet 11751329_s_at) / Fold change (ACY-1035/veh), FGFR1OP (ProbeSet 11751329_s_at) / Fold change (Aza/veh), VPS36 (ProbeSet 11739960_a_at) / Fold change (ACY-1035/veh), VPS36 (ProbeSet 11739960_a_at) / RFU SYPL1 (11715823_x_at) / Fold change /veh SYPL1 (11715823_x_at) / RFU IGFBP7 (11715501_s_at) / Fold change /veh IGFBP7 (11715501_s_at) / RFU REEP3 (11722064_at) / Fold change /veh REEP3 (11722064_at) / RFU IGLL1 (11728026_x_at) / Fold change /veh IGLL1 (11728026_x_at): dose or concentration left out as unconfirmed", "conditions": "ProbeSet 11740011_at; LIST B", "data": [{"smiles": "Nc1ncn([C@@H]2O[C@H](CO)[C@@H](O)[C@H]2O)c(=O)n1", "note": "[azacitidine]", "values": [{"measurement": "RFU, ZFP14", "value": 67.74, "unit": "RFU"}]}]}
